Test results published in PMC3581075 (Journal of pharmaceutical sciences, 2011).
Counter-ions that a name gives are not always drawn. Like-named read-outs stand apart in the source and are kept apart here. Blank lines part the entries; values can stand above or below the compound they belong to.

Experiments:
rat hepatocytes [1] = conditions: 2 min, rifampin 10 μM, MK-571 100 μM
OATP1B3 = target: T1, OATP1B3 (Homo sapiens, UniProt Q9NPD5); conditions: on average; p<0.05
T1 sequence (Q9NPD5 1-702): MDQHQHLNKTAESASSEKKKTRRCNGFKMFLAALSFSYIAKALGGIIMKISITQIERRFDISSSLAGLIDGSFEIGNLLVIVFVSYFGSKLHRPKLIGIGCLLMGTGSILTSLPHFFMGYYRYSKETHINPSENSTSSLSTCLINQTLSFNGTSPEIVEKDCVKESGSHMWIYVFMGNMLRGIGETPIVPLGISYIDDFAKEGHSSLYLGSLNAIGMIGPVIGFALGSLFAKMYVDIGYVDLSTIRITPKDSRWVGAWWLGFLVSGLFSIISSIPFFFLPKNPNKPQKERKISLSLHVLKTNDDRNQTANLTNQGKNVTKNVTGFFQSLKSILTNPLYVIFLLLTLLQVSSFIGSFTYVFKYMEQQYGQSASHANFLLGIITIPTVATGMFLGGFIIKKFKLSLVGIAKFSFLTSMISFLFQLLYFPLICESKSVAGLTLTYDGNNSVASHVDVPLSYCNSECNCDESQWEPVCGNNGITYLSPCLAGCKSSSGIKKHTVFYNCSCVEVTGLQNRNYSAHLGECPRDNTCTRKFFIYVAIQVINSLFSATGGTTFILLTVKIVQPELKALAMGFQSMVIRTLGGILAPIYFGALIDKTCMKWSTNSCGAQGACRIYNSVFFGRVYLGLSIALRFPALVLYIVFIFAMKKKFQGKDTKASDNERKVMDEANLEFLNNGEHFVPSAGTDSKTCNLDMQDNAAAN

OATP2B1 = target: T2, OATP2B1 (Homo sapiens, UniProt O94956); conditions: on average; p<0.05
T2 sequence (O94956 1-709): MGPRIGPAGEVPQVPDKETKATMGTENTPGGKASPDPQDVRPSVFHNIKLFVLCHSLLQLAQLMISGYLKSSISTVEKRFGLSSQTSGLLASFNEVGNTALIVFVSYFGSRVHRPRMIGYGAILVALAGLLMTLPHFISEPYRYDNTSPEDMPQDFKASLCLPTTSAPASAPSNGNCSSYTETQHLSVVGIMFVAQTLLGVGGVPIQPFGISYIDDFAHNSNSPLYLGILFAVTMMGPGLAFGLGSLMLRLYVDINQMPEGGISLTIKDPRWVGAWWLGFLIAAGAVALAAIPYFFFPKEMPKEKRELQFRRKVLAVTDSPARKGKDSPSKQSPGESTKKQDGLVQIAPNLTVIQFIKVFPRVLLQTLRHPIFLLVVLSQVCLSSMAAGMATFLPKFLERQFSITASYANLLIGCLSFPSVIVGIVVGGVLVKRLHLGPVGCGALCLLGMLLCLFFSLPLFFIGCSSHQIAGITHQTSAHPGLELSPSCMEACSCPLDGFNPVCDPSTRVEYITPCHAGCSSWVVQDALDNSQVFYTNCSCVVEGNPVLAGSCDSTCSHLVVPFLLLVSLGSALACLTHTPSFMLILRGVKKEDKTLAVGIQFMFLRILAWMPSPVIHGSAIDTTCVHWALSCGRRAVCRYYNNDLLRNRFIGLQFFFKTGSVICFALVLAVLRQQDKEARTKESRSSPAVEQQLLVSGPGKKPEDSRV

rat hepatocytes [2] = tested on: rat hepatocytes
[3] = classification by solubility, permeability and extent of metabolism; cited from earlier work
rat hepatocytes [4] = tested on: rat hepatocytes; remark: listed apart in the source
pooled rat microsomes [5] = experiment: Microsome incubations, pooled rat microsomes; conditions: propranolol 10 μM, 0.5 mg/ml microsomes, 30 min, 37°C; rifampin 10 μM, quinidine 30 μM
pooled human microsomes [6] = experiment: Microsome incubations, pooled human microsomes; conditions: propranolol 10 μM; quinidine 30 μM
rat hepatocytes [7] = tested on: rat hepatocytes; remark: listed apart in the source
pooled rat microsomes [8] = tested on: pooled rat microsomes
pooled human microsomes [9] = tested on: pooled human microsomes

Change of uptake of propranolol in rat hepatocytes (rat hepatocytes [1]; propranolol 10 μM, n=4): not significantly changed
Compound: CN(C)C(=O)CCSC(SCCC(=O)O)c1cccc(/C=C/c2ccc3ccc(Cl)cc3n2)c1 (stereo not shown) [MK-571]

Compound: CC12CCC3c4ccc(OS(=O)(=O)O)cc4CCC3C1CCC2=O (stereo not shown) [[^3H]-estrone sulfate]
Decrease of uptake in pcMV6 empty vector control vs OATP1B3 transfected cells (OATP1B3): 50% | Decrease of uptake in pcMV6 empty vector control vs OATP2B1 transfected cells (OATP2B1): 80%

Compound: CC[C@H](C)[C@H](NC(=O)[C@H](CC(=O)O)NC(=O)[C@H](CC(C)C)NC(=O)[C@H](Cc1cnc[nH]1)NC(=O)[C@@H]1CSSC[C@H](N)C(=O)N[C@@H](CO)C(=O)N[C@H]2CSSC[C@H](NC(=O)[C@H](CCC(=O)O)NC(=O)[C@H](CCCCN)NC(=O)[C@H](CC(=O)O)NC(=O)[C@H](CCSC)NC(=O)[C@H](CC(C)C)NC(=O)[C@H](CO)NC(=O)[C@H](CO)NC2=O)C(=O)N[C@@H](C(C)C)C(=O)N[C@@H](Cc2ccc(O)cc2)C(=O)N[C@@H](Cc2ccccc2)C(=O)N1)C(=O)N[C@H](C(=O)N[C@@H](Cc1c[nH]c2ccccc12)C(=O)O)[C@@H](C)CC [endothelin]
Inhibition of uptake of losartan in rat hepatocytes (rat hepatocytes [2]): 22%

Compound: CCCCc1ncc(/C=C(\Cc2cccs2)C(=O)O)n1Cc1ccc(C(=O)O)cc1 [eprosartan]
BDDCS class [3]: Class 4

Change in AUC of the cumulative metabolite (rat hepatocytes [4]): no change in metabolite formation
Compound: CCCCc1nc(Cl)c(CO)n1Cc1ccc(-c2ccccc2-c2nn[nH]n2)cc1 [losartan]
BDDCS class [3]: Class 2

Compound: CC(C)NCC(O)COc1cccc2ccccc12 (stereo not shown) [propranolol]
BDDCS class [3]: Class 1

Effect on metabolism of propranolol in rat microsomes (pooled rat microsomes [5]): inhibit metabolism | Effect on metabolism of propranolol in human microsomes (pooled human microsomes [6]): inhibited propranolol metabolism
Compound: C=C[C@H]1C[N@@]2CC[C@H]1C[C@@H]2[C@@H](O)c1ccnc2ccc(OC)cc12 [quinidine]

Change of uptake of eprosartan in rat hepatocytes compared to normal serum (rat hepatocytes [7]): no significant differences | Decrease of uptake of losartan in human hepatocytes compared to normal serum (human hepatocytes): 55% | Effect on metabolism of losartan in rat microsomes (pooled rat microsomes [8]): no change in metabolism
Compound: CO[C@H]1/C=C/O[C@@]2(C)Oc3c(C)c(O)c4c(O)c(c(/C=N/N5CCN(C)CC5)c(O)c4c3C2=O)NC(=O)/C(C)=C\C=C\[C@H](C)[C@H](O)[C@@H](C)[C@@H](O)[C@@H](C)[C@H](OC(C)=O)[C@@H]1C [rifampin]

Effect on metabolism of losartan in rat microsomes (pooled rat microsomes [8]): decrease in metabolism | Effect on metabolism of losartan in human microsomes (pooled human microsomes [9]): no inhibition of metabolism
Compound: Nc1ccc(S(=O)(=O)Nc2ccnn2-c2ccccc2)cc1 [sulfaphenazole]

Compound: IL-6: interleukin-6, tested as uremic toxin
Inhibition of uptake of losartan in rat hepatocytes (rat hepatocytes [1]; losartan 10 μM, p<0.05, n=4): 28%
